Assays:
Format in all cases: functional
A498 = experiment: Cytotoxicity against Homo sapiens (human) A498 cells after 48 hr by sulforhodamine B assay; details: A498, 48 h
ACHN = experiment: Cytotoxicity against Homo sapiens (human) ACHN cells after 48 hr by sulforhodamine B assay
786-0 = experiment: Cytotoxicity against Homo sapiens (human) 786-0 cells after 48 hr by sulforhodamine B assay; details: 786-0, 48 h
OVCAR-8 = experiment: Cytotoxicity against Homo sapiens (human) OVCAR8 cells after 48 hr by sulforhodamine B assay; details: OVCAR-8, 48 h
OVCAR-5 = experiment: Cytotoxicity against Homo sapiens (human) OVCAR5 cells after 48 hr by sulforhodamine B assay; details: OVCAR-5, 48 h
IGROV-1 = experiment: Cytotoxicity against Homo sapiens (human) IGROV1 cells after 48 hr by sulforhodamine B assay; details: IGROV-1, 48 h
OVCAR-3 = experiment: Cytotoxicity against Homo sapiens (human) OVCAR3 cells after 48 hr by sulforhodamine B assay; details: OVCAR-3, 48 h
SK-MEL-5 = experiment: Cytotoxicity against Homo sapiens (human) SK-MEL-5 cells after 48 hr by sulforhodamine B assay; details: SK-MEL-5, 48 h
SK-MEL-28 = experiment: Cytotoxicity against Homo sapiens (human) SK-MEL-28 cells after 48 hr by sulforhodamine B assay; details: SK-MEL-28, 48 h
SK-MEL-2 = experiment: Cytotoxicity against Homo sapiens (human) SK-MEL-2 cells after 48 hr by sulforhodamine B assay; details: SK-MEL-2, 48 h
M14 = experiment: Cytotoxicity against Homo sapiens (human) M14 cells after 48 hr by sulforhodamine B assay; details: M14, 48 h
U-251 = experiment: Cytotoxicity against Homo sapiens (human) U251 cells after 48 hr by sulforhodamine B assay; details: U-251, 48 h
SF-539 = experiment: Cytotoxicity against Homo sapiens (human) SF539 cells after 48 hr by sulforhodamine B assay; details: SF-539, 48 h
T47D = experiment: Cytotoxicity against Homo sapiens (human) T47D cells after 48 hr by sulforhodamine B assay
MDA-MB-435 = experiment: Cytotoxicity against Homo sapiens (human) MDA-MB-435 cells after 48 hr by sulforhodamine B assay; details: MDA-MB-435, 48 h
BT-549 = experiment: Cytotoxicity against Homo sapiens (human) BT549 cells after 48 hr by sulforhodamine B assay; details: BT-549, 48 h
DU-145 = experiment: Cytotoxicity against Homo sapiens (human) DU145 cells after 48 hr by sulforhodamine B assay; details: DU-145, 48 h
MCF7 = experiment: Cytotoxicity against Homo sapiens (human) MCF7 cells after 48 hr by sulforhodamine B assay; details: MCF7, 48 h
UO-31 = experiment: Cytotoxicity against Homo sapiens (human) UO31 cells after 48 hr by sulforhodamine B assay; details: UO-31, 48 h
PC-3 = experiment: Cytotoxicity against Homo sapiens (human) PC3 cells after 48 hr by sulforhodamine B assay; details: PC-3, 48 h
SN12C = experiment: Cytotoxicity against Homo sapiens (human) SN12C cells after 48 hr by sulforhodamine B assay
CAKI-1 = experiment: Cytotoxicity against Homo sapiens (human) Caki1 cells after 48 hr by sulforhodamine B assay; details: CAKI-1, 48 h
SF-295 = experiment: Cytotoxicity against Homo sapiens (human) SF295 cells after 48 hr by sulforhodamine B assay; details: SF-295, 48 h
SW-620 = experiment: Cytotoxicity against Homo sapiens (human) SW620 cells after 48 hr by sulforhodamine B assay; details: SW-620, 48 h
HT-29 = experiment: Cytotoxicity against Homo sapiens (human) HT-29 cells after 48 hr by sulforhodamine B assay; details: HT-29, 48 h
NCI-H460 = experiment: Cytotoxicity against Homo sapiens (human) NCI-H460 cells after 48 hr by sulforhodamine B assay; details: NCI-H460, 48 h
NCI-H322M = experiment: Cytotoxicity against Homo sapiens (human) NCI-H322M cells after 48 hr by sulforhodamine B assay
NCI-H226 = experiment: Cytotoxicity against Homo sapiens (human) NCI-H226 cells after 48 hr by sulforhodamine B assay; details: NCI-H226, 48 h
HOP-92 = experiment: Cytotoxicity against Homo sapiens (human) HOP92 cells after 48 hr by sulforhodamine B assay; details: HOP-92, 48 h
EKVX = experiment: Cytotoxicity against Homo sapiens (human) EKVX cells after 48 hr by sulforhodamine B assay
SF-268 = experiment: Cytotoxicity against Homo sapiens (human) SF268 cells assessed as cell growth at 10^-4 M after 48 hr by […] assay; details: SF-268, 48 h, read-out: Activity
[1] = read-out: LC50 (the source's name)

ClCc1ccccc1Cn1cnc2nc(Cl)nc(Cl)c21 showed a GI50 (A498) of 2.51 µM, an LC50 (lethal concentration, 50% cell kill) (A498) of 19.5 µM and a TGI (A498) of 5.88 µM. For the same compound, the GI50 (ACHN) was 0.35 µM, the TGI (ACHN) was 1.25 µM and the CC50 (ACHN; [1]) was 3.54 µM. The GI50 (786-0) was 2.63 µM, the LC50 (786-0) was 30.9 µM and the TGI (786-0) was 7.07 µM. For the same compound, the GI50 (OVCAR-8) was 2.75 µM, the LC50 (concentration killing 50% of cells) (OVCAR-8) was 75.9 µM and the TGI (OVCAR-8) was 7.07 µM. For the same compound, the GI50 (OVCAR-5) was 2.69 µM, the TGI (OVCAR-5) was 5.75 µM and the CC50 (OVCAR-5; [1]) was 28.8 µM. It also gave a GI50 (IGROV-1) of 2.88 µM, an LC50 (IGROV-1) of 9.54 µM and a TGI (IGROV-1) of 5.24 µM. It also gave a GI50 (OVCAR-3) of 14.1 µM, an LC50 (OVCAR-3) of 53.7 µM and a TGI (OVCAR-3) of 27.5 µM. It also gave a GI50 (SK-MEL-5) of 0.74 µM, an LC50 (SK-MEL-5) of 5.49 µM and a TGI (SK-MEL-5) of 2.18 µM. The GI50 (SK-MEL-28) was 0.35 µM, the LC50 (concentration killing 50% of cells) (SK-MEL-28) was > 100 µM and the TGI (SK-MEL-28) was > 100 µM. The GI50 (SK-MEL-2) was 2.75 µM, the LC50 (concentration killing 50% of cells) (SK-MEL-2) was > 100 µM and the TGI (SK-MEL-2) was 5.75 µM. It also gave a GI50 (M14) of 1.86 µM, an LC50 (M14) of 6.45 µM and a TGI (M14) of 3.46 µM. It also gave a GI50 (U-251) of 0.33 µM, an LC50 (concentration killing 50% of cells) (U-251) of 3.63 µM and a TGI (U-251) of 1.17 µM. It also gave a GI50 (SF-539) of 2.13 µM, an LC50 (concentration killing 50% of cells) (SF-539) of 8.31 µM and a TGI (SF-539) of 4.26 µM. For the same compound, the GI50 (T47D) was 0.58 µM, the LC50 (T47D) was > 100 µM and the TGI (T47D) was 5.24 µM. For the same compound, the GI50 (MDA-MB-435) was 16.6 µM, the LC50 (MDA-MB-435) was 58.9 µM and the TGI (MDA-MB-435) was 30.9 µM. It also gave a GI50 (BT-549) of 1.34 µM, an LC50 (50% lethal concentration) (BT-549) of 7.07 µM and a TGI (BT-549) of 3.09 µM. The LC50 (DU-145) was 7.24 µM, the GI50 (MCF7) was 1.04 µM and the LC50 (concentration killing 50% of cells) (MCF7) was > 100 µM. It also gave a TGI (MCF7) of 2.57 µM, a GI50 (UO-31) of 1.73 µM and a GI50 (PC-3) of 0.75 µM. It also gave a TGI (PC-3) of 2.57 µM, a GI50 (SN12C) of 1.17 µM and an LC50 (50% lethal concentration) (SN12C) of 5.62 µM. It also gave a TGI (SN12C) of 2.57 µM, a GI50 (CAKI-1) of 19.5 µM and a TGI (CAKI-1) of 34.7 µM. The CC50 (CAKI-1; [1]) was 61.6 µM, the GI50 (SF-295) was 19.9 µM and the TGI (SF-295) was 35.5 µM. It also gave a CC50 (SF-295; [1]) of 61.6 µM, a GI50 (SW-620) of 0.26 µM and a TGI (SW-620) of 0.67 µM. For the same compound, the CC50 (SW-620; [1]) was 4.67 µM, the GI50 (HT-29) was 0.4 µM and the TGI (HT-29) was > 100 µM. For the same compound, the CC50 (HT-29; [1]) was > 100 µM, the GI50 (NCI-H460) was 2.39 µM and the TGI (NCI-H460) was 5.88 µM. The CC50 (NCI-H460; [1]) was > 100 µM, the GI50 (NCI-H322M) was 4.26 µM and the TGI (NCI-H322M) was 14.5 µM. It also gave a CC50 (NCI-H322M; [1]) of 39.8 µM, a GI50 (NCI-H226) of 2.13 µM and a TGI (NCI-H226) of 6.76 µM. For the same compound, the CC50 (NCI-H226; [1]) was 28.2 µM, the GI50 (HOP-92) was 1.14 µM and the TGI (HOP-92) was 2.81 µM. The CC50 (HOP-92; [1]) was > 100 µM, the GI50 (EKVX) was 1.73 µM and the TGI (EKVX) was 3.23 µM. The CC50 (EKVX; [1]) was 6.02 µM and the growth at 100 µM (SF-268) was 0%.

Source: ChEMBL document CHEMBL3044672, “N9- and N7-(Chloromethyl Phenymethyl)Chloropurine Derivatives from , '-Dichloroxylenes: Synthesis and Anticancer Activity” (2005)
